Experimental data reported in patent US20260224758A1, “ALPHA-SYNUCLEIN BINDERS AND METHODS OF USE” (Merck Sharp & Dohme LLC, priority 2023, published 2026).
Where two headings read alike, the source gives them in different places.

Biological target: T1, triton-extracted alpha-synuclein from PD Tissue (Homo sapiens, UniProt P37840)
T1 construct: tissue Analytic Biological Services Inc; host or cells: human PD temporal cortex grey matter, Triton X-100 insoluble pellet
Experiment: Alpha-synuclein tissue homogenate binding assay (Assay 1), displacement of [^3H]-1000
Details: for Ki: read-out: α-synuclein Tissue Ki (Assay 1); for Selectivity ratio (Assay 2/Assay 1): Aβ Tissue Ki / α-synuclein Tissue Ki
Method: Frozen human brain tissues from PD patients were purchased from Analytic Biological Services Inc. The samples were post-mortem tissues from donors with clinical diagnosis of late stage of PD. Alpha-synuclein, tau and amyloid burden was determined through a combination of immunohistochemistry on frozen thin coronal sections, as well as alpha Lisa-based quantification of protein levels in a detergent insoluble protein fraction. A tissue sample of temporal cortex was identified from one donor as having moderate to high alpha-synuclein burden, low amyloid and minimal to no tau pathology. The detergent insoluble fraction of temporal cortex from this patient was used to support homogenate binding studies. Grey matter was dissected out of the temporal cortex tissue with a dissecting blade and minced with fine dissecting scissors. […] Homogenates were centrifuged at 100,000×g for 45 minutes. The pellet was resuspended in TBS-TX buffer, using a Polytron at highest setting for 30 seconds at 4° C. Homogenates were centrifuged at 100,000×g for 45 minutes and the pellet was resuspended in TBS-TX buffer. A BCA protein assay was performed on the final homogenate to determine the protein concentration. […] For displacement a-synuclein binding assay, compounds and control were solvated in dimethyl sulfoxide (DMSO) and transferred using focused acoustic energy by an Echo 655 liquid handling instrument (Beckman Coulter, Indianapolis, IN) into designated wells of uniquely bar coded 96-well v-bottom low binding polypropylene microplates (Thermo Scientific, 249946). Compound dose response curves were prepared in a 10-point, 3-fold fashion within columns 2-11 of the microplate from high to low compound concentrations. […] Liquid-handling steps for dispensing insoluble fractions of PD brain homogenates and radioligand were performed using a Bravo automated liquid handling platform equipped with a 96LT disposable tip head (Agilent Technologies, Santa Clara. CA). […] The incubation was terminated by rapid filtration through UniFilter-96 GF/C microplates (pre-treated for 30 minutes with 0.2% Polyethylenimine at 4° C.) by using a FilterMate Harvester (PerkinElmer). […] The bottom of each UniFilter-96 GF/C microplate was adhesively sealed (PerkinElmer 6005199) prior to the addition of 50 μL MicroScint-20 liquid scintillation cocktail (PerkinElmer 6013621) to each well. A clear adhesive seal (TopSeal-A PLUS, PerkinElmer 6050185) was then applied to the top of each microplate and counted 1 minute/well on MicroBeta^2 system (PerkinElmer.

[1] = insoluble fraction of PD brain homogenate, [^3H]-1000 3.0 nM, Kd 0.90 nM

Ki [1] [nM] | Selectivity ratio (Assay 2/Assay 1) | Ki [nM] | Structure (SMILES)
1.6 | – | – | OC[C@H]1CN(c2ncc(/C=C/c3ccc(-n4ccnc4)nc3)cn2)CCN1c1ncccn1 [Example 1, (R,E)-(4-(5-(2-(6-(1H-imidazol-1-yl)pyridin-3-yl)vinyl)pyrimidin-2-yl)-1-(pyrimidin-2-yl)piperazin-2-yl)methanol]
0.5 | 8000 | – | FCCOC[C@H]1CN(c2ncc(/C=C/c3ccc(-n4ccnc4)nc3)cn2)CCN1c1ncccn1 [Example 3, (R,E)-5-(2-(6-(1H-imidazol-1-yl)pyridin-3-yl)vinyl)-2-(3-((2-fluoroethoxy)methyl)-4-(pyrimidin-2-yl)piperazin-1-yl)pyrimidine]
– | 3636 | 1.1 | COC[C@H]1CN(c2ncc(C#Cc3ccc(-n4ccnc4)nc3)cn2)CCN1c1cc(F)ncn1 [Example 12, (R)-5-((6-(1H-imidazol-1-yl)pyridin-3-yl)ethynyl)-2-(4-(6-fluoropyrimidin-4-yl)-3-(methoxymethyl)piperazin-1-yl)pyrimidine]
1.3 | 3077 | – | COC[C@H]1CN(c2ncccn2)CCN1c1ncc(/C=C/c2ccc(-n3ccnc3)nc2)cn1 [Example 28, (R,E)-5-(2-(6-(1H-imidazol-1-yl)pyridin-3-yl)vinyl)-2-(2-(methoxymethyl)-4-(pyrimidin-2-yl)piperazin-1-yl)pyrimidine]
2 | 2000 | – | COC[C@H]1CN(c2ncc(/C=C/c3ccc(-n4ccnc4)nc3)cn2)CCN1c1ncc(OCCF)cn1 [Example 35, (R,E)-5-(2-(6-(1H-imidazol-1-yl)pyridin-3-yl)vinyl)-2-(4-(5-(2-fluoroethoxy)pyrimidin-2-yl)-3-(methoxymethyl)piperazin-1-yl)pyrimidine]
0.52 | 7692 | – | COC[C@H]1CN(c2ncc(/C=C/c3ccc(-n4ccnc4)nc3)cn2)CCN1c1ncc(OCC(O)CF)cn1 (stereo partly drawn) [Example 39, 1-((2-((R)-4-(5-((E)-2-(6-(1H-imidazol-1-yl)pyridin-3-yl)vinyl)pyrimidin-2-yl)-2-(methoxymethyl)piperazin-1-yl)pyrimidin-5-yl)oxy)-3-fluoropropan-2-ol]
– | – | 1.22 | Cn1cc(-c2ncc(/C=C/c3cnc(N4CCN(c5ncncn5)[C@@H](COCCF)C4)nc3)cn2)cn1 [Example 43, (R,E)-2-(2-((2-fluoroethoxy)methyl)-4-(5-(2-(2-(1-methyl-1H-pyrazol-4-yl)pyrimidin-5-yl)vinyl)pyrimidin-2-yl)piperazin-1-yl)-1,3,5-triazine]
0.694 | – | – | COC[C@H]1CN(c2ncc(C#Cc3ccc(-c4cnn(CCF)c4)nc3)cn2)CCN1c1ncncn1 [Example 47, (R)-2-(4-(5-((6-(1-(2-fluoroethyl)-1H-pyrazol-4-yl)pyridin-3-yl)ethynyl)pyrimidin-2-yl)-2-(methoxymethyl)piperazin-1-yl)-1,3,5-triazine]
0.897 | – | – | FCCOCCOC[C@H]1CN(c2ncc(C#Cc3ccc(-c4cnco4)nc3)cn2)CCN1c1ncncn1 [Example 48, (R)-5-(5-((2-(3-((2-(2-fluoroethoxy)ethoxy)methyl)-4-(1,3,5-triazin-2-yl)piperazin-1-yl)pyrimidin-5-yl)ethynyl)pyridin-2-yl)oxazole]
2.91 | – | – | Cn1ccc(-c2ncc(C#Cc3cnc(N4CCN(c5ncncn5)[C@@H](COCCF)C4)nc3)cn2)n1 [Example 49, (R)-2-(2-((2-fluoroethoxy)methyl)-4-(5-((2-(1-methyl-1H-pyrazol-3-yl)pyrimidin-5-yl)ethynyl)pyrimidin-2-yl)piperazin-1-yl)-1,3,5-triazine]
0.32 | – | – | Cn1cc(-c2ncc(C#Cc3cnc(N4CCN(c5ccncn5)[C@@H](COCCF)C4)nc3)cn2)cn1 [Example 53, (R)-2-(3-((2-fluoroethoxy)methyl)-4-(pyrimidin-4-yl)piperazin-1-yl)-5-((2-(1-methyl-1H-pyrazol-4-yl)pyrimidin-5-yl)ethynyl)pyrimidine]
0.91 | – | – | COC[C@H]1CN(c2ncc(C#Cc3cnc(-c4cnn(CCF)c4)nc3)cn2)CCN1c1ccncn1 [Example 54, (R)-2-(1-(2-fluoroethyl)-1H-pyrazol-4-yl)-5-((2-(3-(methoxymethyl)-4-(pyrimidin-4-yl)piperazin-1-yl)pyrimidin-5-yl)ethynyl)pyrimidine]
6.67 | – | – | FCCOC[C@H]1CN(c2ncc(C#Cc3cnc(-c4cnco4)nc3)cn2)CCN1c1ncncn1 [Example 55, (R)-5-(5-((2-(3-((2-fluoroethoxy)methyl)-4-(1,3,5-triazin-2-yl)piperazin-1-yl)pyrimidin-5-yl)ethynyl)pyrimidin-2-yl)oxazole]
0.64 | – | – | COC[C@H]1CN(c2ncc(C#Cc3cnc(-c4cnn(CF)c4)nc3)cn2)CCN1c1ncncn1 [Example 56, (R)-2-(4-(5-((2-(1-(fluoromethyl)-1H-pyrazol-4-yl)pyrimidin-5-yl)ethynyl)pyrimidin-2-yl)-2-(methoxymethyl)piperazin-1-yl)-1,3,5-triazine]
1.67 | – | – | COC[C@H]1CN(c2ncc(C#Cc3ccc(-n4cnnc4)nc3)c(F)n2)CCN1c1ccncn1 [Example 58, (R)-5-((6-(4H-1,2,4-triazol-4-yl)pyridin-3-yl)ethynyl)-4-fluoro-2-(3-(methoxymethyl)-4-(pyrimidin-4-yl)piperazin-1-yl)pyrimidine]
9.16 | – | – | Nc1cnn(-c2ncc(C#Cc3cnc(N4CCN(c5ncncn5)[C@@H](COCCF)C4)nc3)cn2)c1 [Example 73, (R)-1-(5-((2-(3-((2-fluoroethoxy)methyl)-4-(1,3,5-triazin-2-yl)piperazin-1-yl)pyrimidin-5-yl)ethynyl)pyrimidin-2-yl)-1H-pyrazol-4-amine]
1.15 | – | – | COC[C@H]1CN(c2ncc(C#Cc3ccc(N4CCC(n5nccn5)CC4)nc3)cn2)CCN1c1ncccn1 [Example 76, (R)-5-((6-(4-(2H-1,2,3-triazol-2-yl)piperidin-1-yl)pyridin-3-yl)ethynyl)-2-(3-(methoxymethyl)-4-(pyrimidin-2-yl)piperazin-1-yl)pyrimidine]
5.42 | – | – | FCCOCCOC[C@H]1CN(c2ncc(C#Cc3cnc(-c4cncnc4)nc3)cn2)CCN1c1ncncn1 [Example 79, (R)-5-((2-(3-((2-(2-fluoroethoxy)ethoxy)methyl)-4-(1,3,5-triazin-2-yl)piperazin-1-yl)pyrimidin-5-yl)ethynyl)-2,5′-bipyrimidine]
1.18 | – | – | COC[C@H]1CN(c2ncc(C#Cc3ccc(-c4cc(F)ncn4)nc3)cn2)CCN1c1ncc(C#N)cn1 [Example 81, (R)-2-(4-(5-((6-(6-fluoropyrimidin-4-yl)pyridin-3-yl)ethynyl)pyrimidin-2-yl)-2-(methoxymethyl)piperazin-1-yl)pyrimidine-5-carbonitrile]
2.39 | – | – | Cn1cc(-c2ncc(C#Cc3cnc(N4CCN(c5ncccn5)[C@@H](COCCOCCOCCOCCF)C4)nc3)cn2)cn1 [Example 83, (R)-2-(3-(13-fluoro-2,5,8,11-tetraoxatridecyl)-4-(pyrimidin-2-yl)piperazin-1-yl)-5-((2-(1-methyl-1H-pyrazol-4-yl)pyrimidin-5-yl)ethynyl)pyrimidine]
2.29 | – | – | COC[C@H]1CN(c2ncncn2)CCN1c1ncc(C#Cc2cnc(-c3cnn(CCF)c3)nc2)cn1 [Example 84, (R)-2-(4-(5-((2-(1-(2-fluoroethyl)-1H-pyrazol-4-yl)pyrimidin-5-yl)ethynyl)pyrimidin-2-yl)-3-(methoxymethyl)piperazin-1-yl)-1,3,5-triazine]
1.05 | – | – | COC[C@H]1CN(c2ncc(C#Cc3cnc(-c4cnn(CCF)c4)nc3)cn2)CCN1c1ccc(F)cn1 [Example 85, (R)-2-(1-(2-fluoroethyl)-1H-pyrazol-4-yl)-5-((2-(4-(5-fluoropyridin-2-yl)-3-(methoxymethyl)piperazin-1-yl)pyrimidin-5-yl)ethynyl)pyrimidine]
2.59 | – | – | C[C@H]1CN(c2ccc(F)cn2)CCN1c1ncc(C#Cc2cnc(-n3cnnc3)nc2)cn1 [Example 86, (S)-5-((2-(4H-1,2,4-triazol-4-yl)pyrimidin-5-yl)ethynyl)-2-(4-(5-fluoropyridin-2-yl)-2-methylpiperazin-1-yl)pyrimidine]
0.89 | – | – | COC[C@@H]1CN(c2ncncn2)CCN1c1ncc(C#Cc2cnc(-c3cnn(CCF)c3)nc2)cn1 [Example 87, (S)-2-(4-(5-((2-(1-(2-fluoroethyl)-1H-pyrazol-4-yl)pyrimidin-5-yl)ethynyl)pyrimidin-2-yl)-3-(methoxymethyl)piperazin-1-yl)-1,3,5-triazine]
